Measurements reported in the supplement of paper PMC8837787.

Tested on: Saccharomyces cerevisiae ABC16-Green Monster
Assay: growth inhibition at single dose (up to 150 µM), below the 70% cut-off for dose-response; higher = more potent
Settings: 18 h; 30 °C; YPD
Outline: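 The entry is percent growth inhibition of drug-sensitive S. cerevisiae ABC16-Green Monster cells. After overnight growth in YPD at 30 °C, cells were diluted to OD600 0.1–0.2 and exposed to each library compound at 150 µM in 200 µl per well, in biological duplicates with untreated cultures beside them, and OD600 was read at 0 h and after 18 h at 30 °C. Any compound under 70% in both replicates was not carried to dose-response.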

Row | Compound | growth inhibition at single dose [%]
1 | COc1ccc(-c2csc(N/C=C3/C(=O)NC(=O)c4ccccc43)n2)cc1OC | < 70
2 | COc1cc(C(=O)Nc2nc3c(cc4c5c(cccc53)CC4)s2)cc(OC)c1OC | < 70
3 | CCN(CC)CCCNc1nc(-c2ccc(Cl)cc2)nc2ccccc12 | < 70
4 | COc1ccc(/C(C#N)=C/c2ccccc2OC)cc1 | < 70
5 | CC(C)(C(=O)Nc1ccc(F)cc1)n1cc(-c2ccccc2F)cn1 | < 70
6 | CCn1c2ccccc2c2cc(NC(C)C(=O)N3CCNC3=O)ccc21 (stereo not drawn) | < 70
7 | CN1CCC(c2cc(-c3ccncc3)c(-c3ccc(F)cc3)[nH]2)CC1 | < 70
8 | Cc1ccccc1OCCSc1nc2ccc(NC(=O)c3cccs3)cc2s1 | < 70
9 | COC(=O)c1cc(OC)c(OC)cc1NS(=O)(=O)c1ccc(OC)cc1 | < 70
10 | COc1cccc(Nc2nc(NCCO)c3ccccc3n2)c1 | < 70
11 | O=C(Nc1ccc(CN2CCOCC2)cc1)c1ccc(-c2cc(Cl)ccc2Cl)o1 | < 70
12 | O=C(OCc1ccccc1)N1CCC(c2cc(-c3ccncc3)c(-c3ccc(F)cc3)[nH]2)CC1 | < 70
13 | CCc1c(C)nc(-n2nc(C)cc2NC(=O)c2ccccc2SC)[nH]c1=O | < 70
14 | CC(C)n1ncc2cc(C(=O)Nc3nc(-c4ccccn4)cs3)cnc21 | < 70
15 | CCN(CC)CCNc1ncnc2c1[nH]c1ccc(Br)cc12 | < 70
16 | COC(=O)c1cc(OC)c(OC)cc1NS(=O)(=O)c1ccc(Cl)cc1 | < 70
17 | CNC(=O)c1ccc(CN(Cc2ccc(SC)cc2)Cc2ccco2)cc1 | < 70
18 | Cc1ccc2cc3c(N)c4c(C)ccc(C)c4nc3nc2c1 | < 70
19 | CC(C)n1nc(-c2cc3c(Cl)cccc3[nH]2)c2c(N)ncnc21 | < 70
20 | CC(C)C(C(=O)Nc1ccc(S(=O)(=O)N(C)C)cc1)c1ccc(Cl)cc1 (stereo not drawn) | < 70
21 | COc1cccc(-c2cc3c(Nc4cccnc4)nccc3[nH]2)c1 | < 70

Row | Compound | growth inhibition at single dose [%]
22 | c1ccc(Cn2c(N=Nc3c(Nc4ccccc4)ccc4ccccc34)nc3ccccc32)cc1 | < 70
23 | CCN(CC)CCNc1ccnc2cc3ccccc3cc12 | < 70
24 | CCn1nnnc1Sc1nc(C)nc2sc3c(c12)CCC3 | < 70
25 | Cc1sc2ncnc(Sc3nc4ccccc4[nH]3)c2c1C | < 70
26 | COC(=O)c1ccc(F)cc1NS(=O)(=O)c1cccc(-c2cnn(Cc3ccccc3)c2)c1 | < 70
27 | COc1ccc(C=C2SC(Nc3ccccc3)=NC2=O)cc1 | < 70
28 | CCc1ccccc1-n1c(C)cn2c3c(=O)n(C(C(=O)OC)C(C)C)c(=O)n(C)c3nc12 (stereo not drawn) | < 70
29 | Cc1cc(/C=C/C(=O)Nc2nccs2)c(C)n1-c1ccccc1 | < 70
30 | C/N=c1\scc(-c2ccc(OC(F)F)cc2)n1/N=C/c1ccccc1Br | < 70
31 | O=C(Nc1ccc(-c2nc3cc(NC(=O)c4ccc(Cl)cc4)ccc3[nH]2)cc1)c1ccc(Cl)cc1 | < 70
32 | c1ccc(-c2ccc(-c3nc4ccccc4[nH]3)cc2)cc1 | < 70
33 | Cc1nc(C(=O)N2CCc3c(c(C(=O)NCc4ccccn4)nn3CCc3ccccc3)C2)cs1 | < 70
34 | Cc1cc(NC(=O)c2cccc(C(F)(F)F)c2)n(-c2nc(-c3ccc4c(c3)OCO4)cs2)n1 | < 70
35 | C=CCn1c(C)cc(C(=O)COC(=O)C(O)(c2ccccc2)c2ccccc2)c1C | < 70
36 | Cc1cc(C(=O)COC(=O)c2[nH]nc3ccccc23)c(C)n1Cc1cccs1 | < 70
37 | Cc1cc2ccccc2n1CC(=O)N1CC(C(=O)N2CCCCC2)Oc2ccccc21 (stereo not drawn) | < 70
38 | COc1ccc(-c2cc3c(SCC(=O)Nc4cc(C(F)(F)F)ccc4Cl)nccn3n2)cc1 | < 70
39 | c1cncc(NCc2ccc(-c3cc4ccncc4cc3OC3CCNCC3)s2)c1 | < 70
40 | CCN(CC)c1ccc(NC(=O)c2cccs2)cc1 | < 70
41 | CCCOCc1cc(CN2CCN(c3cccc(Cl)c3)CC2)c(O)c2ncccc12 | < 70
42 | COc1ccc([N+](=O)[O-])cc1C(=O)Nc1nc2c(s1)CCCCC2 | < 70

Row | Compound | growth inhibition at single dose [%]
43 | CC(=O)N(CCN(C(=O)c1ccc(F)cc1)c1ccccc1)c1ccccc1 | < 70
44 | CCN1CCN(c2c(C(=O)c3ccccc3)cnc3cc(OC)c(OC)cc23)CC1 | < 70
45 | C[C@H]1COc2c(N3CCN(C)CC3)c(F)cc3c(=O)c(C(=O)O)cn1c23 | < 70
46 | O=C(Nc1ccc(F)c(-c2nc3cc(-c4ccccc4)cnc3[nH]2)c1)N1CCCC1 | < 70
47 | COc1ccc(N(CCc2cccc(C)n2)C(=O)C2CCCCC2)cc1 | < 70
48 | CCOc1ccc(Nc2c3ccccc3nc3ccccc23)cc1 | < 70
49 | COc1cccc(C2(C)Nc3ccccc3-c3nc4ccccc4n32)c1 (stereo not drawn) | < 70
50 | Nc1nccnc1C(=O)Nc1ccc(C23CC4CC(CC(C4)C2)C3)cc1 | < 70
51 | O=C(Nc1nc(CN2CCOCC2)cs1)c1ccc(-c2ccccc2)cc1 | < 70
52 | Cc1nc(Sc2ncnc3sc4c(c23)CCC4)sc1CC(N)=O | < 70
53 | COCC(C)NC(=O)CSc1ncnc2sc(-c3ccccc3)cc12 (stereo not drawn) | < 70
54 | O=C(Nc1ncccc1O)c1ccc(S(=O)(=O)NCCc2cccs2)cc1 | < 70
55 | COc1cc(NC(=O)Cc2nn(C)c(=O)c3ccccc23)ccc1Cl | < 70
56 | Cc1cc(C(=O)Nc2ccc(-c3ccccc3)cc2)no1 | < 70
57 | CC(C)(C)C1CCC(CC2=C(O)C(=O)c3ccccc3C2=O)CC1 (stereo not drawn) | < 70
58 | CC(C)c1nc(N2CCN(CC(=O)N3CCCC3)CC2)c(C#N)c2c1CCC2 | < 70
59 | COC(=O)c1cccc2oc(-c3cccc(OC)c3NC(=O)c3cc(-c4ccccc4)on3)nc12 | < 70
60 | O=C(Nc1cccnc1)c1c(O)c2cccc3c2n(c1=O)CC3 | < 70
61 | O=C(Nc1ccc(N2CCCC2)cn1)c1cc(Cl)ccn1 | < 70
62 | O=C(Nc1ccc(C23CC4CC(CC(c5ccccc5)(C4)C2)C3)cc1)c1cccs1 | < 70
63 | CCN(CC)C(=O)N1CCN(C)CC1 [Diethylcarbamazine] | < 70

Row | Compound | growth inhibition at single dose [%]
64 | COc1ccc2nc(C)cc(Nc3cccc(O)c3)c2c1 | < 70
65 | Oc1ccccc1CNCC12CC3CC(CC(C3)C1)C2 | < 70
66 | CCc1ccc(CNCC(O)c2ccccc2)cc1 (stereo not drawn) | < 70
67 | COc1cccc(C(=O)NC(c2ccc(C)cc2)c2cc(Cl)c3cccnc3c2O)c1 (stereo not drawn) | < 70
68 | O=C(Nc1nc2ccc(Oc3ccccc3)cc2s1)C1=COCCO1 | < 70
69 | O=C(Nc1ccc(Oc2cc(C(F)(F)F)cc(C(F)(F)F)c2)cc1)Nc1ccc(OC(F)(F)F)cc1 | < 70
70 | O=C(Nc1nc2cc3c(cc2s1)OCCO3)c1cccc2c[nH]nc12 | < 70
71 | CNc1snc(C)c1C(=O)N(C)Cc1ccc(C(C)C)cc1 | < 70
72 | COc1ccc2nc(C)cc(Nc3ccccc3O)c2c1 | < 70
73 | CCCCn1c(C(C)Oc2ccc(Cl)cc2Cl)nc2cc(S(N)(=O)=O)ccc21 (stereo not drawn) | < 70
74 | CCCOc1ccc(C(F)(F)F)cc1NC(=O)c1nc2nccc(C)n2n1 | < 70
75 | CN(Cc1c(F)cccc1Cl)C(=O)COc1ccc2[nH]c3ccccc3c(=O)c2c1 | < 70
76 | CC(C)(C)c1ccc(NC(=O)c2cnccn2)cc1 | < 70
77 | Cc1nn2c(=O)c3c([nH]c2c1-c1ccc(Cl)cc1)CCCC3 | < 70
78 | Cc1cccn2c(=O)cc(CN3C(=O)NC(C)(c4ccc(F)cc4)C3=O)nc12 (stereo not drawn) | < 70
79 | CN1CCCN(C(c2ccccc2)c2ccc(Cl)cc2)CC1 (stereo not drawn) | < 70
80 | Cc1ccc(-c2cc(C(=O)Nc3ccc(S(=O)(=O)N4CCCCC4)cc3)[nH]n2)c(O)c1 | < 70
81 | Clc1ccc2c(N3CCCC3)ccnc2c1 | < 70
82 | CN1CCN(c2ccc(Cl)cc2NC(=O)c2cccc(Oc3ccccc3)c2)CC1 | < 70
83 | O=C(Nc1ncccc1O)c1ccc(-n2cnc3ccccc32)cc1 | < 70
